This is an account of results in patent US11396523B2, “Proton activated atomic medicine” (priority 2017, dated 2022).

The conditions of series [1]: large doses, human cancer patients; cited from earlier work.
The test system of series [2] is glioblastoma cell line U87-MG. Nature of the series: in vitro colony assay (survival fraction) after proton beam irradiation. The note with it: for cytotoxicity / cell kill compared to the proton beam treatment alone: 8 Gye single fraction protons plus compound, U87 cells exposed 96 hours before irradiation. How it is done: FIG. 1 is a graphic representation of the dose of irradiation (x-axis) versus the log survival fraction (y-axis) of log phase U87 human glioblastoma cells. Three groups were used. […] This molecule is synthesized by replacing the 2 position of the aromatic ring of the nitrogenous base with oxygen-18. When these cells are treated with protons, there is a chemical transmutation at the atomic level where upon the oxygen-18 atom is changed into radioactive fluorine-18.
Physiologic serum concentrations in normal and cancer patients the physiologic serum concentration is ˜0.3-1.2 μM. The cells were irradiated with 2 and 8 Gye with 160 MeV protons single fraction and cell death/survival was determined using a colony assay and calculation of survival fraction.

For the compound `Cc1cn([C@H]2C[C@H](O)[C@@H](CO)O2)c(=O)[nH]c1=O` [Thymidine, reference compound], the “concentrations in the serum achieved” value in series [1] is “milli-molar range”. Also, the “effect on cell survival” value in series [2] (same concentration X time exposure (0.5, 96 hours) plus 8 Gye protons) was “no effect”.

As to C2-^18O-Thymidine [2-HTd], the increased cell kill result in series [2] (0.5 microgram HTd exposed for 96 hours in vitro, 8 Gye single fraction protons, versus protons alone (FIG. 1)) was “about half a log”. The figures for the “cytotoxicity / cell kill compared to the proton beam treatment alone” value in series [2] and in series [2] (listed as heavy thymidine) were “increased cytotoxicity” and “greater cell kill”, respectively. In series [2] (plus a single dose of 8 Gye of protons), the radiation sensitization result is reported as “proton specific radiation sensitization”.
